From patent publication US8709303B2, “Dielectric insulation medium” (ABB Research Ltd., priority 2010, dated 2014)

Columns and labels:
[1] = risk for human toxicity, concluded from mammalian HFC tests; conditions: concluded from available results of mammalian HFC tests
Excerpt: This can be concluded from the available results of mammalian HFC (hydrofluorocarbon) tests. Also, information available on commercial hydrofluoro monoethers give no evidence of carcinogenicity, mutagenicity, reproductive/developmental effect and other chronic effects of the compounds of the present application.

[2] = products include I2; cited from earlier work
thermal stability = conditions: 175° C. for 30 days

Row | SMILES | risk for human toxicity [1] | temperature at which decomposition into hazardous products starts [2] | thermal stability (thermal stability)
1 | FC(F)(F)COC(F)(F)F [2,2,2-trifluoroethyl-trifluoromethyl ether (CF3—O—CH2CF3)] | low risk for human toxicity |  | 
2 | FC(F)(F)I [CF3I, trifluoroiodomethane (CF3I)] |  | around 100 °C | 
3 | COC(F)(F)C(F)(F)F [pentafluoro-ethyl-methyl ether, pentafluoro-ethyl-methyl ether (CH3—O—CF2CF3)] | low risk for human toxicity |  | thermally stable
